From patent publication US11566007B2, “Ras inhibitors” (Revolution Medicines, Inc., priority 2019, dated 2023)
Where two headings read alike, the source gives them in different places.

How the values were obtained:
K-Ras G12C = K-Ras G12C (Homo sapiens (Human), UniProt P01116+P62937, G12C); assay: Ras-Raf (BRAF RBD) disruption / FRET / MOA assay, KRAS G12C; format: biochemical; conditions: KRAS G12C, Ras-Raf disruption/FRET/MOA assay
In short: (§1)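 Ras:RAF disruption was scored as a fall in TR-FRET ratio relative to DMSO. Compound ranged in 3-fold steps over 10 points from 30 μM final; incubation ran 3 h at 25° C, detection antibodies a further 1.5 h. Reported as IC50.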

KRAS WT = KRAS WT (Homo sapiens (Human), UniProt P01116+P62937); assay: Ras-Raf (BRAF RBD) disruption / FRET / MOA assay, KRAS WT; format: biochemical
In short: as §1

K-Ras G13C = K-Ras G13C (Homo sapiens (Human), UniProt P01116+P62937, G13C); assay: Ras-Raf (BRAF RBD) disruption / FRET / MOA assay, KRAS G13C; format: biochemical; conditions: KRAS G13C, Ras-Raf disruption/FRET/MOA assay
In short: as §1

NCI-H358 (K-Ras G12C) = assay: CellTiter-Glo cell viability assay, NCI-H358; format: cell-based, human; conditions: Homo sapiens, NCI-H358, 120 h, class symbols
In short: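 Four-parameter logistic fits were applied to luminescence data normalized against DMSO-treated wells. Readings were taken on day 5 following direct compound addition, after roughly 30 minutes at room temperature.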

NRAS G12C = NRAS G12C (Homo sapiens (Human), UniProt P01111+P62937, G12C); assay: Ras-Raf (BRAF RBD) disruption / FRET / MOA assay, NRAS G12C; format: biochemical
In short: as §1

NRAS WT = NRAS WT (Homo sapiens (Human), UniProt P01111+P62937); assay: Ras-Raf (BRAF RBD) disruption / FRET / MOA assay, NRAS WT; format: biochemical; conditions: read-out: IC50* NRAS WT FRET data
In short: (§2)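 TR-FRET disruption of nucleotide-loaded Ras binding to BRAF RBD via compound-driven ternary complex with cyclophilin A. Compound as 10-point 3-fold series from 30 μM final, 3 h at 25° C, then anti-His Eu-W1024 (10 nM) and anti-GST allophycocyanin (50 nM) for 1.5 h. IC50 from decreased FRET ratio versus DMSO.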

KRAS G12V = KRAS G12V (Homo sapiens (Human), UniProt P01116+P62937, G12V); assay: Ras-Raf (BRAF RBD) disruption / FRET / MOA assay, KRAS G12V; format: biochemical
In short: as §1

KRAS G13D = KRAS G13D (Homo sapiens (Human), UniProt P01116+P62937, G13D); assay: Ras-Raf (BRAF RBD) disruption / FRET / MOA assay, KRAS G13D; format: biochemical
In short: as §1

KRAS Q61H = KRAS Q61H (Homo sapiens (Human), UniProt P01116+P62937, Q61H); assay: Ras-Raf (BRAF RBD) disruption / FRET / MOA assay, KRAS Q61H; format: biochemical; conditions: Ras-Raf disruption/FRET/MOA assay; class symbols; read-out: KRAS Q61H FRET data IC50
In short: as §2

NRAS Q61R = NRAS Q61R (Homo sapiens (Human), UniProt P01111+P62937, Q61R); assay: Ras-Raf (BRAF RBD) disruption / FRET / MOA assay, NRAS Q61R; format: biochemical; conditions: NRAS Q61R; Ras-Raf disruption/FRET/MOA assay; read-out: IC50* NRAS Q61R FRET data
In short: as §2

[1] = read-out: IC50* KRAS G12C FRET data
[2] = read-out: IC50* KRAS WT FRET data
[3] = read-out: IC50* KRAS G13C FRET data
[4] = NCI-H358, 5-day treatment, read-out: Additional H358 Cell Viability assay data (K-Ras G12C, IC50)
[5] = read-out: IC50* NRAS G12C FRET data
[6] = read-out: IC50* KRAS G12V FRET data
[7] = read-out: IC50* KRAS G13D FRET data
[8] = read-out: Additional H358 Cell Viability assay data (K-Ras G12C, IC50, uM), NCI-H358, 5-day treatment

Sequence of NRAS Q61R (P01111 whole entry Q61R): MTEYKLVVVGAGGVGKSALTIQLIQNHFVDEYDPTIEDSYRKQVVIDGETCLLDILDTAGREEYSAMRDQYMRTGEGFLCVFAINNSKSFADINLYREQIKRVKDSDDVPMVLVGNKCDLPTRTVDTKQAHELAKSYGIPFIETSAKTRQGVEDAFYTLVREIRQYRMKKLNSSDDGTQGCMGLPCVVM
Sequence of NRAS Q61R (P62937 whole entry): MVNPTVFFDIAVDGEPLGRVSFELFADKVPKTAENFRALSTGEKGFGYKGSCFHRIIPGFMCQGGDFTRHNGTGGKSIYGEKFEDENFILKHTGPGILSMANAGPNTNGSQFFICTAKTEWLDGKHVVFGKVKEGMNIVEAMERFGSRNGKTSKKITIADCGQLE
Sequence of NRAS G12C (P01111 whole entry G12C): as the sequence (P01111 whole entry Q61R) above, with G12C, R61Q counted along it
Sequence of NRAS G12C (P62937 whole entry): as the sequence (P62937 whole entry) above
Sequence of NRAS WT (P01111 whole entry): as the sequence (P01111 whole entry Q61R) above, with R61Q counted along it
Sequence of NRAS WT (P62937 whole entry): as the sequence (P62937 whole entry) above
Sequence of K-Ras G12C (P01116-2 other isoform, or with tags, fused parts or gaps G12C): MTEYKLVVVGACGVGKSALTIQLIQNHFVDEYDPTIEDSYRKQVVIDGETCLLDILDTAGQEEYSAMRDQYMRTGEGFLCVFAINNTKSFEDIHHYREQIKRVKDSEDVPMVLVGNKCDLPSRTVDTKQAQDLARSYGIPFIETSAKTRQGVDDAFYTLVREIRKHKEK
Sequence of K-Ras G12C (P62937 whole entry): as the sequence (P62937 whole entry) above
Sequence of KRAS Q61H (P01116-2 other isoform, or with tags, fused parts or gaps Q61H): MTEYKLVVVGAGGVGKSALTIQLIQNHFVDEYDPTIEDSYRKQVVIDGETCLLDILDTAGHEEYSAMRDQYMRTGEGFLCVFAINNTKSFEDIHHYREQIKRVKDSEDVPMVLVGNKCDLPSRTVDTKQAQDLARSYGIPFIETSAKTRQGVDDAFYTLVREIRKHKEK
Sequence of KRAS Q61H (P62937 whole entry): as the sequence (P62937 whole entry) above
Sequence of KRAS WT (P01116-2 other isoform, or with tags, fused parts or gaps): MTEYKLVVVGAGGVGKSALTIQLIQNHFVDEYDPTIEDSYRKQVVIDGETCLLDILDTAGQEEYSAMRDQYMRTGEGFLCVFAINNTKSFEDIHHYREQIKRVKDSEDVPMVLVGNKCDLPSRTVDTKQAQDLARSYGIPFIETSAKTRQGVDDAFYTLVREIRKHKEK
Sequence of KRAS WT (P62937 whole entry): as the sequence (P62937 whole entry) above
Sequence of KRAS G12V (P01116-2 other isoform, or with tags, fused parts or gaps G12V): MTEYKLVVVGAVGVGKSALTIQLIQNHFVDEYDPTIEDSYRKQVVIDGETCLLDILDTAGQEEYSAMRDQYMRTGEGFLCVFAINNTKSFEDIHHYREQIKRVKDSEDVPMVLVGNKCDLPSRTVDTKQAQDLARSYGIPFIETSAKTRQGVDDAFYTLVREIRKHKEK
Sequence of KRAS G12V (P62937 whole entry): as the sequence (P62937 whole entry) above
Sequence of KRAS G13D (P01116-2 other isoform, or with tags, fused parts or gaps G13D): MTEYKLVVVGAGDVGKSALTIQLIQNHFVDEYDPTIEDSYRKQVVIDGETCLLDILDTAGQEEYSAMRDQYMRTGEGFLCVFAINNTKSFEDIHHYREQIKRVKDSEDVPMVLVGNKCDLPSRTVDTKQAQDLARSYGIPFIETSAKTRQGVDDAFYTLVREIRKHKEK
Sequence of KRAS G13D (P62937 whole entry): as the sequence (P62937 whole entry) above
Sequence of K-Ras G13C (P01116-2 other isoform, or with tags, fused parts or gaps G13C): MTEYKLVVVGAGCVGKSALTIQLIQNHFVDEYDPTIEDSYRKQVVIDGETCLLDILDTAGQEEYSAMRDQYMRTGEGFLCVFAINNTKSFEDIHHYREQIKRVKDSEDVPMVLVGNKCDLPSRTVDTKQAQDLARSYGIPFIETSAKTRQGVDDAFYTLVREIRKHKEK
Sequence of K-Ras G13C (P62937 whole entry): as the sequence (P62937 whole entry) above

Row | SMILES | IC50 (K-Ras G12C; [1]) [nM] | IC50 (KRAS WT; [2]) [nM] | IC50 (K-Ras G13C; [3]) [nM] | IC50 (NCI-H358 (K-Ras G12C); [4]) [µM] | IC50 (NRAS G12C; [5]) [nM] | IC50 (NRAS WT) [nM] | IC50 (KRAS G12V; [6]) [nM] | IC50 (KRAS G13D; [7]) [nM] | IC50 (KRAS Q61H) [nM] | IC50 (NRAS Q61R) [nM] | IC50 (K-Ras G12C; IC50* KRAS G12C FRET data) [nM] | IC50 (KRAS WT; IC50* KRAS WT FRET data) [nM] | IC50 (K-Ras G13C; IC50* KRAS G13C FRET data) [nM] | IC50 (NCI-H358 (K-Ras G12C); [8]) [µM] | IC50 (NRAS G12C; IC50* NRAS G12C FRET data) [nM] | IC50 (KRAS G12V; IC50* KRAS G12V FRET data) [nM] | IC50 (KRAS G13D; IC50* KRAS G13D FRET data) [nM]
1 | C=CC(=O)N1CC[C@H](C(=O)N(C)[C@H](C(=O)N[C@H]2Cc3cccc(c3)-c3ccc4c(c3)c(c(-c3cc(CN(C)C)cnc3[C@H](C)OC)n4CC)CC(C)(C)COC(=O)[C@@H]3CCCN(N3)C2=O)C(C)C)C1 (atropisomer, axis not shown) [Example A522] | 100 to 1000 | 1000 to 10000 | 1000 to 10000 | < 0.01 | 100 to 1000 | 1000 to 10000 | 1000 to 10000 | 1000 to 10000 | 100 to 1000 | 1000 to 10000 |  |  |  |  |  |  | 
2 | C=CC(=O)N1CCO[C@H]2CN(C(=O)N(C)[C@H](C(=O)N[C@H]3Cc4cc(C(F)F)cc(n4)-c4ccc5c(c4)c(c(-c4cccnc4[C@H](C)OC)n5CC(F)(F)F)CC(C)(C)COC(=O)[C@@H]4CCCN(N4)C3=O)C(C)C)C[C@H]21 (atropisomer, axis not shown) [Example A540] |  |  |  |  |  | 1000 to 10000 |  |  | 100 to 1000 | 1000 to 10000 | 100 to 1000 | 1000 to 10000 | 10 to 100 | < 0.01 | 100 to 1000 | 1000 to 10000 | 1000 to 10000
3 | C=CC(=O)N1CCO[C@@H]2CN(C(=O)N(C)[C@H](C(=O)N[C@H]3Cc4nc(cs4)-c4ccc5c(c4)c(c(-c4cccnc4[C@H](C)OC)n5CC)CC(C)(C)COC(=O)[C@@H]4CCCN(N4)C3=O)C(C)C)C[C@H]21 (atropisomer, axis not shown) [Example A543] | < 10 | 100 to 1000 | 100 to 1000 | < 0.01 | < 10 | 100 to 1000 | 100 to 1000 | 100 to 1000 | 10 to 100 | 100 to 1000 |  |  |  |  |  |  | 
4 | C=CC(=O)N1CCO[C@H]2CN(C(=O)N(C)[C@H](C(=O)N[C@H]3Cc4nc(cs4)-c4ccc5c(c4)c(c(-c4cccnc4[C@H](C)OC)n5CC)CC(C)(C)COC(=O)[C@@H]4CCCN(N4)C3=O)C(C)C)C[C@@H]21 (atropisomer, axis not shown) [Example A544] | < 10 | 100 to 1000 | 100 to 1000 | < 0.01 | < 10 | 100 to 1000 | 100 to 1000 | 100 to 1000 | 10 to 100 | 100 to 1000 |  |  |  |  |  |  | 
5 | C=CC(=O)N1CCOC2(CCN(C(=O)N(C)[C@H](C(=O)N[C@H]3Cc4nsc(n4)-c4ccc5c(c4)c(c(-c4cccnc4[C@H](C)OC)n5CC)CC(C)(C)COC(=O)[C@@H]4CCCN(N4)C3=O)C(C)C)CC2)C1 (atropisomer, axis not shown) [Example A545] | 10 to 100 | 100 to 1000 | 10 to 100 | 0.01 to 0.1 | 10 to 100 | 100 to 1000 | 100 to 1000 | 100 to 1000 | 10 to 100 | 100 to 1000 |  |  |  |  |  |  | 
6 | C=CC(=O)N1CC[C@@H]2[C@H]1CN2C(=O)N(C)[C@H](C(=O)N[C@H]1Cc2nc(cs2)-c2ccc3c(c2)c(c(-c2cccnc2[C@H](C)OC)n3CC)CC(C)(C)COC(=O)[C@@H]2CCCN(N2)C1=O)C(C)C (atropisomer, axis not shown) [Example A546] | 100 to 1000 | 1000 to 10000 | 10 to 100 | < 0.01 | 100 to 1000 | 100 to 1000 | 100 to 1000 | 1000 to 10000 | 100 to 1000 | 100 to 1000 |  |  |  |  |  |  | 
7 | CCn1c(-c2cccnc2[C@H](C)OC)c2c3cc(ccc31)-c1cccc(c1)C[C@H](NC(=O)[C@H](C(C)C)N1CC[C@@]3(CCN(C(=O)C#C[C@H]4COCCN4C)C3)C1=O)C(=O)N1CCC[C@H](N1)C(=O)OCC(C)(C)C2 (atropisomer, axis not shown) [Example A551] | < 10 | 1000 to 10000 | 100 to 1000 |  | < 10 | 1000 to 10000 | 1000 to 10000 | 1000 to 10000 | 100 to 1000 | 1000 to 10000 |  |  |  | < 0.01 |  |  | 
8 | CCn1c(-c2cccnc2[C@H](C)OC)c2c3cc(ccc31)-c1cccc(c1)C[C@H](NC(=O)[C@H](C(C)C)N1CO[C@@]3(CCN(C(=O)/C=C/CN(C)C)C3)C1=O)C(=O)N1CCC[C@H](N1)C(=O)OCC(C)(C)C2 (atropisomer, axis not shown) [Example A558] | 10 to 100 | 100 to 1000 | 100 to 1000 | 0.01 to 0.1 | 10 to 100 | 100 to 1000 | 1000 to 10000 | 100 to 1000 | 100 to 1000 | 1000 to 10000 |  |  |  |  |  |  | 
9 | CO[C@@H](COC1CN(C(=O)C#CC(C)(C)N(C)C)C1)C(=O)N[C@H]1Cc2coc(n2)-c2ccc3c(c2)c(c(-c2cccnc2[C@H](C)OC)n3CC(F)(F)F)CC(C)(C)COC(=O)[C@@H]2CCCN(N2)C1=O (atropisomer, axis not shown) [Example A579] | < 10 | 1000 to 10000 | 1000 to 10000 | < 0.01 | < 10 | 1000 to 10000 | 1000 to 10000 | > 10000 | 1000 to 10000 | > 10000 |  |  |  |  |  |  | 
10 | C=CC(=O)N1CCO[C@H]2CCN(C(=O)N(C)[C@H](C(=O)N[C@H]3Cc4nc(cs4)-c4ccc5c(c4)c(c(-c4cccnc4[C@H](C)OC)n5CC)CC(C)(C)COC(=O)[C@@H]4CCCN(N4)C3=O)C(C)C)C[C@H]21 (atropisomer, axis not shown) [Example A580] | 10 to 100 | 100 to 1000 | 100 to 1000 | 0.01 to 0.1 | 10 to 100 | 100 to 1000 | 100 to 1000 | 100 to 1000 | 10 to 100 | 100 to 1000 |  |  |  |  |  |  | 
11 | C=CC(=O)NCCN1CCN(C(=O)N(C)[C@H](C(=O)N[C@H]2Cc3nc(cs3)-c3ccc4c(c3)c(c(-c3cccnc3[C@H](C)OC)n4CC)CC(C)(C)COC(=O)[C@@H]3CCCN(N3)C2=O)C(C)C)CC1 (atropisomer, axis not shown) [Example A582] | 100 to 1000 | 100 to 1000 | 100 to 1000 | 0.01 to 0.1 | 10 to 100 | 100 to 1000 | 100 to 1000 | 100 to 1000 | 10 to 100 | 100 to 1000 |  |  |  |  |  |  | 
